# pIC50: −log10 of the molar value. Positions of bridges follow the written chain, without caps; N, C: chain ends. Non-standard residues stand in square brackets, D forms with d. Residues, ends and D or L forms follow the SMILES beside them. *: point of attachment. hPhe(3-Cl-4-CF3) = N[C@@H](CCc1ccc(C(F)(F)F)c(Cl)c1)C(=O)O; NMePhe(4-F) = CN[C@@H](Cc1ccc(F)cc1)C(=O)O; NMe3Pal = CN[C@@H](Cc1cccnc1)C(=O)O; NMeCha = CN[C@@H](CC1CCCCC1)C(=O)O; NMeAhp(2) = CCCCC[C@H](NC)C(=O)O; NMeChg = CN[C@H](C(=O)O)C1CCCCC1; NMeF = CN[C@@H](Cc1ccccc1)C(=O)O; NMeD = CN[C@@H](CC(=O)O)C(=O)O; NMeL = CN[C@@H](CC(C)C)C(=O)O; Ahp(2) = CCCCC[C@H](N)C(=O)O; NMeV = CN[C@H](C(=O)O)C(C)C; d(β3hA) = C[C@@H](N)CC(=O)O; NMeS = CN[C@@H](CO)C(=O)O; Morpholide = C1CN(*)CCO1; NMeA = CN[C@@H](C)C(=O)O; Nle = CCCC[C@H](N)C(=O)O; Piperidide = C1CCN(*)CC1; Pyrrolidide = C1CCN(*)C1; dNMeA = CN[C@H](C)C(=O)O; Ac5c = NC1(C(=O)O)CCCC1; Aze = O=C(O)[C@@H]1CCN1; Sar = CNCC(=O)O
# Biological target: T1, Kras and SOS1 (biotin-tagged human Kras loaded with GDP, His-tagged human SOS1) (Homo sapiens, UniProt P01116, G12D)
# T1 construct: made in house; host or cells: E. coli (stated for Kras only)
# Assay: Protein-protein interaction inhibition between Kras and SOS1 (KrasGl2D-SOS PPI) using AlphaScreen
# Type: binding
# Settings: AlphaScreen; biotin-tagged human Kras loaded with GDP, His-tagged human SOS1; read-out: KRAS G12D-SOS PPI IC50
# Summary of the method: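 Binding between SOS1 and Kras is detected as bead-proximity luminescence: illuminate Ni-conjugated donors (680 nm), collect 520-620 nm emission from streptavidin-conjugated acceptors; Kras carries biotin and GDP loaded after purification, SOS1 carries a His tag.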
# T1 sequence (P01116 1-188 isoform P01116-2 G12D): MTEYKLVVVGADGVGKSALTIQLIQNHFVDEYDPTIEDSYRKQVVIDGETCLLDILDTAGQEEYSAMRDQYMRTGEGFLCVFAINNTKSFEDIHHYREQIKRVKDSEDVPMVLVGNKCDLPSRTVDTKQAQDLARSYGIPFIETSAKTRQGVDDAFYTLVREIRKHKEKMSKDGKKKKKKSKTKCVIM
row,Compound,pIC50
1,CC[C@H](C)[C@@H]1NC(=O)[C@H](C)N(C)C(=O)C[C@@H](C)NC(=O)[C@H](C(C)C)N(C)C(=O)C2(CCCC2)NC(=O)[C@@H]2CCCN2C(=O)[C@H](CCc2ccc(C(F)(F)F)c(Cl)c2)NC(=O)[C@H]2CCCN2C(=O)[C@H](Cc2ccc(F)cc2)N(C)C(=O)[C@@H]2CCCN2C(=O)CN(C)C1=O [Compound 1667] (cyclo([Ac5c][NMeV][d(β3hA)][NMeA]I[Sar]P[NMePhe(4-F)][dP][hPhe(3-Cl-4-CF3)]P)),7.89
2,CC[C@H](C)[C@@H]1NC(=O)[C@H](CC(C)C)N(C)C(=O)C[C@@H](C(=O)N2CCCCC2)N(C)C(=O)[C@H](C2CCCCC2)N(C)C(=O)C2(CCCC2)NC(=O)[C@@H]2CCCN2C(=O)[C@H](CCc2ccc(C(F)(F)F)c(Cl)c2)NC(=O)CN(C)C(=O)[C@H](C)N(C)C(=O)CN(C)C(=O)CN(C)C1=O [Compound 1681] ([NMeL]I[Sar][Sar][NMeA][Sar][hPhe(3-Cl-4-CF3)]P[Ac5c][NMeChg][NMeD]-Piperidide; lactam N-11),8.51
3,CC[C@H](C)[C@@H]1NC(=O)[C@H](CC(C)C)N(C)C(=O)C[C@@H](C(=O)N2CCCCC2)N(C)C(=O)[C@H](C2CCCCC2)N(C)C(=O)C2(CCCC2)NC(=O)[C@@H]2CCCN2C(=O)[C@H](CCc2ccc(C(F)(F)F)c(Cl)c2)NC(=O)CN(C)C(=O)[C@H](CO)N(C)C(=O)CN(C)C(=O)CN(C)C1=O [Compound 1687] ([NMeL]I[Sar][Sar][NMeS][Sar][hPhe(3-Cl-4-CF3)]P[Ac5c][NMeChg][NMeD]-Piperidide; lactam N-11),8.38
4,CC[C@H](C)[C@@H]1NC(=O)[C@H](C)N(C)C(=O)C[C@@H](C)NC(=O)[C@H](C2CCCCC2)N(C)C(=O)C2(CCCC2)NC(=O)[C@@H]2CCCN2C(=O)[C@H](CCc2ccc(C(F)(F)F)c(Cl)c2)NC(=O)CN(C)C(=O)[C@H](CC2CCCCC2)N(C)C(=O)CN(C)C(=O)CN(C)C1=O [Compound 1688] (cyclo([Ac5c][NMeChg][d(β3hA)][NMeA]I[Sar][Sar][NMeCha][Sar][hPhe(3-Cl-4-CF3)]P)),7.62
5,CC[C@H](C)[C@@H]1NC(=O)[C@H](C)N(C)C(=O)C[C@@H](C)NC(=O)[C@H](C(C)C)N(C)C(=O)C2(CCCC2)NC(=O)[C@@H]2CCCN2C(=O)[C@H](CCc2ccc(C(F)(F)F)c(Cl)c2)NC(=O)[C@@H](C)N(C)C(=O)[C@H](Cc2ccccc2)N(C)C(=O)CN(C)C(=O)CN(C)C1=O [Compound 1691] (cyclo([Ac5c][NMeV][d(β3hA)][NMeA]I[Sar][Sar][NMeF][dNMeA][hPhe(3-Cl-4-CF3)]P)),6.92
6,CCCCC[C@@H]1NC(=O)[C@H](CC(C)C)N(C)C(=O)C[C@@H](C(=O)N2CCCCC2)N(C)C(=O)[C@H](C2CCCCC2)N(C)C(=O)C2(CCCC2)NC(=O)[C@@H]2CCCN2C(=O)[C@H](CCc2ccc(C(F)(F)F)c(Cl)c2)NC(=O)CN(C)C(=O)[C@H](CC2CCCCC2)N(C)C(=O)CN(C)C(=O)CN(C)C1=O [Compound 1692] ([NMeL][Ahp(2)][Sar][Sar][NMeCha][Sar][hPhe(3-Cl-4-CF3)]P[Ac5c][NMeChg][NMeD]-Piperidide; lactam N-11),8.46
7,CC[C@H](C)[C@@H]1NC(=O)[C@H](C)N(C)C(=O)C[C@@H](C(=O)N2CCCCC2)N(C)C(=O)[C@H](C(C)C)N(C)C(=O)C2(CCCC2)NC(=O)[C@@H]2CCCN2C(=O)[C@H](CCc2ccc(C(F)(F)F)c(Cl)c2)NC(=O)CN(C)C(=O)[C@H](Cc2ccc(F)cc2)N(C)C(=O)[C@@H]2CCCN2C(=O)CN(C)C1=O [Compound 1698] ([NMeA]I[Sar]P[NMePhe(4-F)][Sar][hPhe(3-Cl-4-CF3)]P[Ac5c][NMeV][NMeD]-Piperidide; lactam N-11),8.92
8,CC[C@H](C)[C@@H]1NC(=O)[C@H](C)N(C)C(=O)C[C@@H](C(=O)N2CCOCC2)N(C)C(=O)[C@H](C2CCCCC2)N(C)C(=O)C2(CCCC2)NC(=O)[C@H](Cc2cccnc2)N(C)C(=O)[C@H](CCc2ccc(C(F)(F)F)c(Cl)c2)NC(=O)CN(C)C(=O)[C@H](CC2CCCCC2)N(C)C(=O)[C@@H]2CCN2C(=O)CN(C)C1=O [Compound 1703] ([NMeA]I[Sar][Aze][NMeCha][Sar][hPhe(3-Cl-4-CF3)][NMe3Pal][Ac5c][NMeChg][NMeD]-Morpholide; lactam N-11),9.39
9,CC[C@H](C)[C@@H]1NC(=O)[C@H](C)N(C)C(=O)C[C@@H](C(=O)N2CCCC2)N(C)C(=O)[C@H](C(C)C)N(C)C(=O)C2(CCCC2)NC(=O)[C@@H]2CCCN2C(=O)[C@H](CCc2ccc(C(F)(F)F)c(Cl)c2)NC(=O)[C@@H](C)N(C)C(=O)[C@H](CC2CCCCC2)N(C)C(=O)[C@@H]2CCCN2C(=O)CN(C)C1=O [Compound 1715] ([NMeA]I[Sar]P[NMeCha][dNMeA][hPhe(3-Cl-4-CF3)]P[Ac5c][NMeV][NMeD]-Pyrrolidide; lactam N-11),8.62
10,CCCCC[C@H]1C(=O)N(C)[C@H](C(=O)N2CCCCC2)CC(=O)N(C)[C@@H](CC(C)C)C(=O)N[C@@H]([C@@H](C)CC)C(=O)N(C)CC(=O)N(C)CC(=O)N(C)[C@@H](CC2CCCCC2)C(=O)N(C)CC(=O)N[C@@H](CCc2ccc(C(F)(F)F)c(Cl)c2)C(=O)N2CCC[C@H]2C(=O)NC2(CCCC2)C(=O)N1C [Compound 1719] ([NMeL]I[Sar][Sar][NMeCha][Sar][hPhe(3-Cl-4-CF3)]P[Ac5c][NMeAhp(2)][NMeD]-Piperidide; lactam N-11),7.74
11,CCCC[C@@H]1NC(=O)[C@H](CC(C)C)N(C)C(=O)C[C@@H](C(=O)N2CCCCC2)N(C)C(=O)[C@H](C2CCCCC2)N(C)C(=O)C2(CCCC2)NC(=O)[C@@H]2CCCN2C(=O)[C@H](CCc2ccc(C(F)(F)F)c(Cl)c2)NC(=O)CN(C)C(=O)[C@H](CC2CCCCC2)N(C)C(=O)CN(C)C(=O)CN(C)C1=O [Compound 1723] ([NMeL][Nle][Sar][Sar][NMeCha][Sar][hPhe(3-Cl-4-CF3)]P[Ac5c][NMeChg][NMeD]-Piperidide; lactam N-11),8.44
12,CC[C@H](C)[C@@H]1NC(=O)[C@H](C)N(C)C(=O)C[C@@H](C(=O)N2CCCCC2)N(C)C(=O)[C@H](C(C)C)N(C)C(=O)C2(CCCC2)NC(=O)[C@@H]2CCCN2C(=O)[C@H](CCc2ccc(C(F)(F)F)c(Cl)c2)NC(=O)[C@H]2CCCN2C(=O)[C@H](Cc2ccc(F)cc2)N(C)C(=O)[C@@H]2CCCN2C(=O)CN(C)C1=O [Compound 1725] ([NMeA]I[Sar]P[NMePhe(4-F)][dP][hPhe(3-Cl-4-CF3)]P[Ac5c][NMeV][NMeD]-Piperidide; lactam N-11),7.64
13,CC[C@H](C)[C@@H]1NC(=O)[C@H](C)N(C)C(=O)C[C@@H](C)NC(=O)[C@H](C(C)C)N(C)C(=O)C2(CCCC2)NC(=O)[C@@H]2CCCN2C(=O)[C@H](CCc2ccc(C(F)(F)F)c(Cl)c2)NC(=O)[C@H]2CCCN2C(=O)[C@H](Cc2ccccc2)N(C)C(=O)[C@@H]2CCCN2C(=O)CN(C)C1=O [Compound 1730] (cyclo([Ac5c][NMeV][d(β3hA)][NMeA]I[Sar]P[NMeF][dP][hPhe(3-Cl-4-CF3)]P)),7.46
14,CC[C@H](C)[C@@H]1NC(=O)[C@H](C)N(C)C(=O)C[C@@H](C)NC(=O)[C@H](C(C)C)N(C)C(=O)C2(CCCC2)NC(=O)[C@@H]2CCCN2C(=O)[C@H](CCc2ccc(C(F)(F)F)c(Cl)c2)NC(=O)CN(C)C(=O)[C@H](Cc2ccc(F)cc2)N(C)C(=O)[C@@H]2CCCN2C(=O)CN(C)C1=O [Compound 1732] (cyclo([Ac5c][NMeV][d(β3hA)][NMeA]I[Sar]P[NMePhe(4-F)][Sar][hPhe(3-Cl-4-CF3)]P)),8.26

# From patent publication US12371454B2, “Cyclic peptide compound having Kras inhibitory action” (priority 2019, dated 2025)
